# Where two headings read alike, the source gives them in different places.
# Key:
# BT-549 = assay: NCI screen, BT-549 (Breast Cancer); details: BT-549, 48 hour exposure
# Protocol: (§1) The compounds of this invention were also tested against the panel of 60 human cancer cell lines at the National Cancer Institute, Bethesda, Md. (44). The cytrotoxicity studies were conducted using a 48 hour exposure, and measuring the optical density of sulforhodamide B-derived color.
# MCF7 = assay: NCI screen, MCF7 (Breast Cancer)
# Protocol: (§2) The compounds of this invention were also tested against the panel of 60 human cancer cell lines at the National Cancer Institute, Bethesda, Md. […] The cytrotoxicity studies were conducted using a 48 hour exposure, and measuring the optical density of sulforhodamide B-derived color.
# SF-539 = assay: NCI screen, SF-539 (CNS Cancer)
# Protocol: as §2
# U251 = assay: NCI screen, U251 (CNS Cancer); details: U251, 48 hour exposure
# Protocol: as §2
# UACC-257 = assay: NCI screen, UACC-257 (Melanoma)
# Protocol: as §2
# TK-10 = assay: NCI screen, TK-10 (Renal Cancer); details: TK-10, 48 hour exposure
# Protocol: as §2
# SW-620 = assay: NCI screen, SW-620 (Colon Cancer); assay type: cell-based, human
# Protocol: as §2
# HOP-62 = assay: NCI screen, HOP-62 (Non-Small Cell Lung Cancer)
# Protocol: as §2
# NCI-H522 = assay: NCI screen, NCI-H522 (Non-Small Cell Lung Cancer)
# Protocol: as §2
# MCF7/ADR-RES = assay: NCI screen, MCF7/ADR-RES (Breast Cancer); assay type: cell-based, human; details: NCI/ADR-RES, 48 hour exposure
# Protocol: as §2
# SF-295 = assay: NCI screen, SF-295 (CNS Cancer)
# Protocol: as §2
# SF-268 = assay: NCI screen, SF-268 (CNS Cancer); details: SF-268, 48 hour exposure
# Protocol: as §1
# LOX IMVI = assay: NCI screen, LOX IMVI (Melanoma); details: LOX IMVI, 48 hour exposure
# Protocol: as §1
# OVCAR-8 = assay: NCI screen, OVCAR-8 (Ovarian Cancer); details: OVCAR-8, 48 hour exposure
# Protocol: as §1
# HCT-116 = assay: NCI screen, HCT-116 (Colon Cancer); details: HCT-116, 48 hour exposure
# Protocol: as §2
# IGROV1 = assay: NCI screen, IGROV1 (Ovarian Cancer); assay type: cell-based, human; details: IGROV1, 48 hour exposure
# Protocol: as §2
# MOLT-4 = assay: NCI screen, MOLT-4 (Leukemia)
# Protocol: as §2
# SNB-75 = assay: NCI screen, SNB-75 (CNS Cancer); details: SNB-75, 48 hour exposure
# Protocol: as §2
# NCI-H226 = assay: NCI screen, NCI-H226 (Non-Small Cell Lung Cancer); assay type: cell-based, human
# Protocol: as §2
# SR = assay: NCI screen, SR (Leukemia)
# Protocol: as §2
# [1] = Log10 Concentration −4.3, 48 hour exposure
# [2] = Log10 Concentration −5.3, 48 hour exposure
# [3] = Log10 Concentration −6.3, 48 hour exposure
# [4] = Log10 Concentration −7.3, 48 hour exposure
# [5] = Log10 Concentration −8.3, 48 hour exposure
smiles,measurement,setting,value
"COC(=O)c1[nH]c2c(O)cc(NC(=O)c3cc4cc(OC)c(OC)c(OC)c4[nH]3)c(CCCl)c2c1C(=O)OC [Compound 22, Dimethyl 4-(2-chloroethyl)-7-hydroxy-5-(5,6,7-trimethoxyindole-2-carboxamido)indole-2,3-dicarboxylate]",TGI,BT-549,1.23E−05 Molar
same,Percent Growth,BT-549; Log10 Concentration −4.3,−39%
same,Percent Growth,BT-549; Log10 Concentration −5.3,25%
same,Percent Growth,BT-549; Log10 Concentration −6.3,42%
same,Percent Growth,BT-549; Log10 Concentration −7.3,85%
same,Percent Growth,BT-549; Log10 Concentration −8.3,91%
same,TGI,MCF7; 48 hour exposure,6.31E−06 Molar
same,Percent Growth,MCF7; [1],−51%
same,Percent Growth,MCF7; [2],6%
same,Percent Growth,MCF7; [3],6%
same,Percent Growth,MCF7; [4],39%
same,Percent Growth,MCF7; [5],70%
same,TGI,SF-539; 48 hour exposure,2.07E−07 Molar
same,Percent Growth,SF-539; [1],−90%
same,Percent Growth,SF-539; [2],−84%
same,Percent Growth,SF-539; [3],−47%
same,Percent Growth,SF-539; [4],75%
same,Percent Growth,SF-539; [5],89%
same,TGI,U251,8.44E−06 Molar
same,Percent Growth,U251; Log10 Concentration −4.3,−40%
same,Percent Growth,U251; Log10 Concentration −5.3,12%
same,Percent Growth,U251; Log10 Concentration −6.3,11%
same,Percent Growth,U251; Log10 Concentration −7.3,74%
same,Percent Growth,U251; Log10 Concentration −8.3,89%
same,TGI,UACC-257; 48 hour exposure,2.25E−05 Molar
same,Percent Growth,UACC-257; [1],−10%
same,Percent Growth,UACC-257; [2],19%
same,Percent Growth,UACC-257; [3],6%
same,Percent Growth,UACC-257; [4],99%
same,Percent Growth,UACC-257; [5],101%
same,TGI,KM12,2.03E−07 Molar
same,TGI,TK-10,>5.00E−05 Molar
same,Percent Growth,TK-10; Log10 Concentration −4.3,8%
same,Percent Growth,TK-10; Log10 Concentration −5.3,22%
same,Percent Growth,TK-10; Log10 Concentration −6.3,31%
same,Percent Growth,TK-10; Log10 Concentration −7.3,102%
same,Percent Growth,TK-10; Log10 Concentration −8.3,100%
same,TGI,SW-620; 48 hour exposure,1.90E−05 Molar
same,Percent Growth,SW-620; [1],−11%
same,Percent Growth,SW-620; [2],16%
same,Percent Growth,SW-620; [3],9%
same,Percent Growth,SW-620; [4],71%
same,Percent Growth,SW-620; [5],86%
same,TGI,HOP-62; 48 hour exposure,2.51E−07 Molar
same,Percent Growth,HOP-62; [1],−88%
same,Percent Growth,HOP-62; [2],−39%
same,Percent Growth,HOP-62; [3],−34%
same,Percent Growth,HOP-62; [4],80%
same,Percent Growth,HOP-62; [5],92%
same,TGI,NCI-H522; 48 hour exposure,1.47E−07 Molar
same,Percent Growth,NCI-H522; [1],−96%
same,Percent Growth,NCI-H522; [2],−86%
same,Percent Growth,NCI-H522; [3],−66%
same,Percent Growth,NCI-H522; [4],58%
same,Percent Growth,NCI-H522; [5],74%
same,TGI,MCF7/ADR-RES,8.17E−07 Molar
same,Percent Growth,MCF7/ADR-RES; Log10 Concentration −4.3,−41%
same,Percent Growth,MCF7/ADR-RES; Log10 Concentration −5.3,−58%
same,Percent Growth,MCF7/ADR-RES; Log10 Concentration −6.3,16%
same,Percent Growth,MCF7/ADR-RES; Log10 Concentration −7.3,77%
same,Percent Growth,MCF7/ADR-RES; Log10 Concentration −8.3,97%
same,Percent Growth,A549/ATCC; [1],5%
same,Percent Growth,A549/ATCC; [2],12%
same,Percent Growth,A549/ATCC; [3],−6%
same,Percent Growth,A549/ATCC; [4],93%
same,Percent Growth,A549/ATCC; [5],108%
same,Percent Growth,SF-295,1%
same,TGI,"SF-295; SF-295, 48 hour exposure",>5.00E−05 Molar
same,Percent Growth,"SF-295; SF-295, Log10 Concentration −5.3, 48 hour exposure",11%
same,Percent Growth,"SF-295; SF-295, Log10 Concentration −6.3, 48 hour exposure",14%
same,Percent Growth,"SF-295; SF-295, Log10 Concentration −7.3, 48 hour exposure",74%
same,Percent Growth,"SF-295; SF-295, Log10 Concentration −8.3, 48 hour exposure",106%
same,TGI,SF-268,8.40E−08 Molar
same,Percent Growth,SF-268; Log10 Concentration −4.3,−58%
same,Percent Growth,SF-268; Log10 Concentration −5.3,−63%
same,Percent Growth,SF-268; Log10 Concentration −6.3,−42%
same,Percent Growth,SF-268; Log10 Concentration −7.3,12%
same,Percent Growth,SF-268; Log10 Concentration −8.3,80%
same,TGI,LOX IMVI,3.84E−07 Molar
same,Percent Growth,LOX IMVI; Log10 Concentration −4.3,−61%
same,Percent Growth,LOX IMVI; Log10 Concentration −5.3,−23%
same,Percent Growth,LOX IMVI; Log10 Concentration −6.3,−9%
same,Percent Growth,LOX IMVI; Log10 Concentration −7.3,66%
same,Percent Growth,LOX IMVI; Log10 Concentration −8.3,81%
same,TGI,OVCAR-8,2.33E−07 Molar
same,Percent Growth,OVCAR-8; Log10 Concentration −4.3,−64%
same,Percent Growth,OVCAR-8; Log10 Concentration −5.3,−65%
same,Percent Growth,OVCAR-8; Log10 Concentration −6.3,−32%
same,Percent Growth,OVCAR-8; Log10 Concentration −7.3,65%
same,Percent Growth,OVCAR-8; Log10 Concentration −8.3,86%
same,TGI,HCT-116,1.95E−07 Molar
same,Percent Growth,HCT-116; Log10 Concentration −4.3,−59%
same,Percent Growth,HCT-116; Log10 Concentration −5.3,−9%
same,Percent Growth,HCT-116; Log10 Concentration −6.3,−43%
same,Percent Growth,HCT-116; Log10 Concentration −7.3,62%
same,Percent Growth,HCT-116; Log10 Concentration −8.3,88%
same,TGI,IGROV1,1.62E−07 Molar
same,Percent Growth,IGROV1; Log10 Concentration −4.3,−80%
same,Percent Growth,IGROV1; Log10 Concentration −5.3,−35%
same,Percent Growth,IGROV1; Log10 Concentration −6.3,−59%
same,Percent Growth,IGROV1; Log10 Concentration −7.3,61%
same,Percent Growth,IGROV1; Log10 Concentration −8.3,71%
same,TGI,MOLT-4; 48 hour exposure,>5.00E−05 Molar
same,Percent Growth,MOLT-4; [1],22%
same,Percent Growth,MOLT-4; [2],20%
same,Percent Growth,MOLT-4; [3],21%
same,Percent Growth,MOLT-4; [4],28%
same,Percent Growth,MOLT-4; [5],61%
same,TGI,SNB-75,1.90E−07 Molar
same,Percent Growth,SNB-75; Log10 Concentration −4.3,−51%
same,Percent Growth,SNB-75; Log10 Concentration −5.3,−84%
same,Percent Growth,SNB-75; Log10 Concentration −6.3,−44%
same,Percent Growth,SNB-75; Log10 Concentration −7.3,60%
same,Percent Growth,SNB-75; Log10 Concentration −8.3,77%
same,TGI,NCI-H226; 48 hour exposure,2.21E−07 Molar
same,Percent Growth,NCI-H226; [1],−76%
same,Percent Growth,NCI-H226; [2],−55%
same,Percent Growth,NCI-H226; [3],−38%
same,Percent Growth,NCI-H226; [4],69%
same,Percent Growth,NCI-H226; [5],104%
same,TGI,SR; 48 hour exposure,>5.00E−05 Molar
same,CC50,"SR; Homo sapiens, 48 h, read-out: LC50",> 50 µM
same,Percent Growth,SR; [1],20%
same,Percent Growth,SR; [2],27%
same,Percent Growth,SR; [3],21%
same,Percent Growth,SR; [4],28%
same,Percent Growth,SR; [5],51%
